# Molecular target: T1, PRMT5/MEP50 (Homo sapiens, UniProt O14744)
# T1 construct: Expressed full-length human Flag-PRMT5/6His-MeP50 protein complex was purified; made in house; host or cells: Spodoptera frugiperda (SF9) insect cells, baculovirus (pDEST8)
# Assay: PRMT5 Biochemical Assay (PRMT5/MEP50 enzyme assay on peptide substrate, 3H-SAM Flashplate)
# Details: PRMT5 biochemical assay, Table C-2; read-out: Biochemical IC50
# From the text: S-adenosylmethionine (SAM), S-adenosylhomocysteine (SAH), bicine, KCl, Tween20, dimethylsulfoxide (DMSO), bovine skin gelatin (BSG), and Tris(2-carboxyethyl)phosphine hydrochloride solution (TCEP) were purchased from Sigma-Aldrich at the highest level of purity possible. ^3H-SAM was purchase from American Radiolabeled Chemicals with a specific activity of 80 Ci/mmol 384-well streptavidin Flashplates were purchased from PerkinElmer.
# Peptide representative of human histone H4 residues 1-15 was synthesized with a C-terminal linker-affinity tag motif and a C-terminal amide cap by 21st Century Biochemicals. […] The sequence was Ac-[…][K-Biot]-amide (SEQ ID NO.:3).
# Full-length human MEP50 (NM_024102) clone was amplified from a human testis cDNA library incorporating a 5′ sequence encoding a 6-histidine tag (MHHHHHH) (SEQ ID NO.:5) fused directly to Arg 2 of MEP50. The amplified genes were sublconed into pENTR/D/TEV (Life Technologies) and subsequently transferred by Gateway™ attL×attR recombination to pDEST8 baculvirus expression vector (Life Technologies).
# Recombinant baculovirus and Baculovirus-Infected Insect Cells (BIIC) were generated according to Bac-to-Bac kit instructions (Life Technologies) and Wasilko, 2006, respectively. Protein over-expression was accomplished by infecting exponentially growing Spodoptera frugiperda (SF9) cell culture at 1.2×10^6 cell/ml with a 5000 fold dilution of BIIC stock. Infections were carried out at 27° C. for 72 hours, harvested by centrifugation, and stored at −80° C. for purification.
# Flag-PRMT5/6His-MeP50 was eluted with 300 mM Imidazole in the same buffer. […] Reference: Wasilko, D. J. and S. E. Lee: “TIPS: titerless infected-cells preservation and scale-up” Bioprocess J., 5 (2006), pp. 29-32.
# General Procedure for PRMT5/MEP50 Enzyme Assays on Peptide Substrates.
# The assays were all performed in a buffer consisting of 20 mM Bicine (pH=7.6), 1 mM TCEP, 0.005% BSG, and 0.002% Tween20, prepared on the day of use. Compounds in 100% DMSO (1 ul) were spotted into a polypropylene 384-well V-bottom plates (Greiner) using a Platemate Plus outfitted with a 384-channel head (Thermo Scientific). DMSO (1 ul) was added to Columns 11, 12, 23, 24, rows A-H for the maximum signal control and 1 ul of SAH, a known product and inhibitor of PRMT5/MEP50, was added to columns 11, 12, 23, 24, rows I-P for the minimum signal control. A cocktail (40 ul) containing the PRMT5/MEP50 enzyme and the peptide was added by Multidrop Combi (Thermo-Fisher). The compounds were allowed to incubate with PRMT5/MEP50 for 30 min at 25 degrees Celsius, then a cocktail (10 ul) containing ^3H-SAM was added to initiate the reaction (final volume=51 ul). The final concentrations of the components were as follows: PRMT5/MEP50 was 4 nM, ^3H-SAM was 75 nM, peptide was 40 nM, SAH in the minimum signal control wells was 100 uM, and the DMSO concentration was 1%. The assays were stopped by the addition of non-radioactive SAM (10 ul) to a final concentration of 600 uM, which dilutes the ^3H-SAM to a level where its incorporation into the peptide substrate is no longer detectable. 50 ul of the reaction in the 384-well polypropylene plate was then transferred to a 384-well Flashplate and the biotinylated peptides were allowed to bind to the streptavidin surface for at least 1 hour before being washed three times with 0.1% Tween20 in a Biotek ELx405 plate washer. The plates were then read in a PerkinElmer TopCount plate reader to measure the quantity of ^3H-labeled peptide bound to the Flashplate surface, measured as disintegrations per minute (dpm) or alternatively, referred to as counts per minute (cpm).
# where dpm=disintegrations per minute, cmpd=signal in assay well, and min and max are the respective minimum and maximum signal controls.
# where top and bottom are the normally allowed to float, but may be fixed at 100 or 0 respectively in a 3-parameter fit.
# T1 sequence (O14744 with tags, fused parts or gaps): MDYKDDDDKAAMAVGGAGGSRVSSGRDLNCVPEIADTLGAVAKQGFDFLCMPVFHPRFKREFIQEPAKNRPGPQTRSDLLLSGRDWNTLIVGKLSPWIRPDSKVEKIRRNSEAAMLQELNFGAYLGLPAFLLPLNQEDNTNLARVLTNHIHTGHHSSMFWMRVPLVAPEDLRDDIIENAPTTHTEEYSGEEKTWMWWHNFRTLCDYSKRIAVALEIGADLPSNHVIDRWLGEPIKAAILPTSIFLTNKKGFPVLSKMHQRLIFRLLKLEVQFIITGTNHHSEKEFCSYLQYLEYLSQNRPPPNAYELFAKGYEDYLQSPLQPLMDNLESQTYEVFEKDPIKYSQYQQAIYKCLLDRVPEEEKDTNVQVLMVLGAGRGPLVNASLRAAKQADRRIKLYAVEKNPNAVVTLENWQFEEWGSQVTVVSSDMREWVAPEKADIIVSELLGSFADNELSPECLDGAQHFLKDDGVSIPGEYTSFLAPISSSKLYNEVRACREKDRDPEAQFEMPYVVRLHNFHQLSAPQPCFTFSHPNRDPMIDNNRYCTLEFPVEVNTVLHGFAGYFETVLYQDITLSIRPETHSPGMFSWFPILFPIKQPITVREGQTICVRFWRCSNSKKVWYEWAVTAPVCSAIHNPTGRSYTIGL
# T1 sequence (Q9BQA1 with tags, fused parts or gaps partner limits assumed): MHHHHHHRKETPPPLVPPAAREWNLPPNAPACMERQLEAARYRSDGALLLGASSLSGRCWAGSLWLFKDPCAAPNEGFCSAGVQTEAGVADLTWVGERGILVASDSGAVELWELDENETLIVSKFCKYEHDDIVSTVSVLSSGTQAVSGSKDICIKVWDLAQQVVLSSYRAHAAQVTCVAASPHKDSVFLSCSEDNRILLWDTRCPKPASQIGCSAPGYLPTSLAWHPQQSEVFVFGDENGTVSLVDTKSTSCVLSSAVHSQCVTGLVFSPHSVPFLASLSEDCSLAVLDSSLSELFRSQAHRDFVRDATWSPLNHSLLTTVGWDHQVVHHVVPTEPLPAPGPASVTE
row,Compound,IC50 [µM]
1,O=C(NC1CCOCC1)C1CC(=O)N(CC(O)CN2CCc3ccccc3C2)C1 (stereo not drawn) [Compound C32],> 10
2,O=c1cc(Nc2ccccc2)ccn1C[C@H](O)CN1CCc2ccccc2C1 [Compound C19],0.101 to 1
3,O=C1CN(Cc2ccccc2)CCN1CC(O)CN1CCc2ccccc2C1 (stereo not drawn) [Compound C24],1 to 10
4,O=C1CN(c2cccc(F)c2)CCN1CC(O)CN1CCc2ccccc2C1 (stereo not drawn) [Compound C6],< 0.1
5,O=c1cc(Nc2ccccc2)ccn1C[C@H](O)CN1CCc2ccccc2C1 [Compound C18],1 to 10
6,O=C1CN(c2ccc(CO)cc2)CCN1CC(O)CN1CCc2ccccc2C1 (stereo not drawn) [Compound C20],0.101 to 1
7,O=C1CN(c2cccc3cccnc23)CCN1CC(O)CN1CCc2ccccc2C1 (stereo not drawn) [Compound C4],< 0.1

# Same assay, conditions: Table A-2; PRMT5/MEP50 4 nM, 3H-SAM 75 nM, peptide 40 nM; read-out: Biochemical IC50
row,Compound,IC50 [µM]
1,CS(=O)(=O)Nc1ncccc1OCC(=O)NCC(O)CN1CCc2ccccc2C1 (stereo not drawn) [Compound A139],> 10
2,Nc1ncccc1OCC(=O)NCC(O)CN1CCc2ccccc2C1 (stereo not drawn) [Compound A145],1 to 10
3,O=C(COc1ccccc1)NC[C@@H](O)CN1CCc2ccccc2C1 [Compound A33],1 to 10
4,CN(C)c1cccnc1OCC(=O)NCC(O)CN1CCc2ccccc2C1 (stereo not drawn) [Compound A133],> 10
5,O=C(COC1CCOCC1)NCC(O)CN1CCc2ccccc2C1 (stereo not drawn) [Compound A41],1 to 10
6,CN(C)c1cncc(OCC(=O)NCC(O)CN2CCc3ccccc3C2)c1 (stereo not drawn) [Compound A143],1 to 10
7,O=C(COc1cccc2c1CCCN2Cc1ccccc1)NCC(O)CN1CCc2ccccc2C1 (stereo not drawn) [Compound A4],< 0.1
8,O=C(COC1CCCCC1)NCC(O)CN1CCc2ccccc2C1 (stereo not drawn) [Compound A24],0.101 to 1
9,O=C(CC1CCCCC1)NC[C@H](O)CN1CCc2ccccc2C1 [Compound A56],1 to 10
10,O=C(COc1cccc2cccnc12)NCC(O)CN1Cc2ccccc2C(F)(F)C1 (stereo not drawn) [Compound A144],> 10
11,NS(=O)(=O)c1ccc(OCC(=O)NCC(O)CN2CCc3ccccc3C2)cc1 (stereo not drawn) [Compound A52],1 to 10
12,O=C(CC1CCCCC1)NC[C@@H](O)CN1CCc2ccccc2C1 [Compound A58],10 to 50

# Same assay, conditions: Table B-2; PRMT5/MEP50 4 nM, 3H-SAM 75 nM, peptide 40 nM; read-out: Biochemical IC50
row,Compound,IC50 [µM]
1,O=C(NCC(O)CN1CCc2ccccc2C1)c1cccc(-c2ccccn2)c1 (stereo not drawn) [Compound B1.],< 0.1
2,O=C(NC[C@H](O)CN1CCc2ccccc2C1)c1cccc(-c2ccccn2)c1 [Compound B20.],< 0.1
3,NS(=O)(=O)c1ccccc1C(=O)NCC(O)CN1CCc2ccccc2C1 (stereo not drawn) [Compound B33.],1 to 10
4,CC(=O)Nc1cccc(C(=O)NCC(O)CN2CCc3ccccc3C2)c1 (stereo not drawn) [Compound B26.],0.101 to 1
5,O=C(NCC(O)CN1CCc2ccccc2C1)c1cccc(C2CCNC2)c1 (stereo not drawn) [Compound B37.],< 0.1
6,O=C(NCC(O)CN1CCc2ccccc2C1)c1cccc(CNC2CCOCC2)c1 (stereo not drawn) [Compound B15.],< 0.1
7,CN1CCCC1c1cccc(C(=O)NCC(O)CN2CCc3ccccc3C2)c1 (stereo not drawn) [Compound B34.],< 0.1
8,O=C(NCC(O)CN1CCc2ccccc2C1)c1cccc(-c2ccncc2)c1 (stereo not drawn) [Compound B9.],< 0.1
9,O=C(NCC(O)CN1CCc2ccccc2C1)c1cc(NC2CCOCC2)ccn1 (stereo not drawn) [Compound B55.],< 0.1
10,CC1(C)CC(Nc2cccc(C(=O)NCC(O)CN3CCc4ccccc4C3)c2)CCO1 (stereo not drawn) [Compound B53.],0.101 to 1
11,O=C(NC[C@H](O)CN1CCc2ccccc2C1)c1cccc(NC2CCOCC2)c1 [Compound B44.],< 0.1
12,O=C(NCC(O)CN1CCc2ccccc2C1)c1cncc(NC2CCOCC2)c1 (stereo not drawn) [Compound B54.],< 0.1
13,O=C(NC[C@@H](O)CN1CCc2ccccc2C1)c1cccc(NC2CCOCC2)c1 [Compound B43.],0.101 to 1

# Same assay, conditions: Table D-2; read-out: Biochemical IC50
row,Compound,IC50 [µM]
1,OC(COc1ccccc1N1CCNCC1)CN1CCc2ccccc2C1 (stereo not drawn) [Compound D7],10 to 40
2,CC1CN(CC(O)COc2cccc(CNC3CCCC3)c2)Cc2ccccc21 (stereo not drawn) [Compound D56],> 40
3,OC(COc1cccc(C2CCCCC2)c1)CN1CCc2ccccc2C1 (stereo not drawn) [Compound D52],1 to 10
4,Cn1cnc2ccc(-c3nccc(NCC(O)CN4CCc5ccccc5C4)n3)cc21 (stereo not drawn) [Compound D120],1 to 10
5,OC(COc1cccc(-c2ccc(C(F)(F)F)cc2)c1)CN1CCc2ccccc2C1 (stereo not drawn) [Compound D133],1 to 10
6,Cn1ccc2ccc(-c3ccnc(NCC(O)CN4CCc5ccccc5C4)c3)cc21 (stereo not drawn) [Compound D227],< 0.1
7,OC(COCc1ccncc1)CN1CCc2ccccc2C1 (stereo not drawn) [Compound D284],10 to 40
8,COc1cccc2c1CN(CC(O)COc1cccc(-c3ccc4ncn(C)c4c3)c1)CC2 (stereo not drawn) [Compound D100],1 to 10
9,COc1cccc2c1CCN(CC(O)COc1cccc(CNC3CCCC3)c1)C2 (stereo not drawn) [Compound D54],> 40
10,OC(COCc1cccnc1)CN1CCc2ccccc2C1 (stereo not drawn) [Compound D283],10 to 40
11,OC(COc1ccccc1-c1ccno1)CN1CCc2ccccc2C1 (stereo not drawn) [Compound D16],1 to 10
12,OC(COCc1ccc(Cl)cc1)CN1CCc2ccccc2C1 (stereo not drawn) [Compound D278],1 to 10
13,Cc1cc(OCC(O)CN2CCc3ccccc3C2)c(C)cc1CN1CCOCC1 (stereo not drawn) [Compound D17],0.101 to 1
14,Cn1cnc2ccc(-c3cccc(OCC(O)CN4CCc5ccccc5C4=O)c3)cc21 (stereo not drawn) [Compound D225],> 40
15,COc1cc2c(cc1OC)CN(CC(O)COc1cccc(-c3ccc4ncn(C)c4c3)c1)CC2 (stereo not drawn) [Compound D146],> 40
16,O=C(c1cncc(-c2cccc(OCC(O)CN3CCc4ccccc4C3)c2)c1)N1CCCC1 (stereo not drawn) [Compound D181],1 to 10
17,OC(COC1CCCC1)CN1CCc2ccccc2C1 (stereo not drawn) [Compound D302],1 to 10
18,OC(COc1ccccc1C1CCCCC1)CN1CCc2ccccc2C1 (stereo not drawn) [Compound D8],1 to 10
19,Cc1ccc2c(c1)CN(CC(O)COc1cccc(-c3ccc4ncn(C)c4c3)c1)CC2 (stereo not drawn) [Compound D212],1 to 10
20,Oc1ccc(-c2cccc(OCC(O)CN3CCc4ccccc4C3)c2)cc1F (stereo not drawn) [Compound D70],1 to 10
21,OC(CNc1cc(-c2ccc3ncn(C4CNC4)c3c2)ccn1)CN1CCc2ccccc2C1 (stereo not drawn) [Compound D229],< 0.1
22,O=C(Nc1cccc(OCC(O)CN2CCc3ccccc3C2)c1)c1ccnnc1 (stereo not drawn) [Compound D184],1 to 10
23,OC(COc1cccc(-c2cncnc2)c1)CN1CCc2ccccc2C1 (stereo not drawn) [Compound D140],1 to 10
24,OC(COc1cccc(-c2cccnc2)c1)CN1CCc2ccccc2C1 (stereo not drawn) [Compound D40],1 to 10

# Same assay, conditions: Table E-2; read-out: Biochemical IC50
row,Compound,IC50 [µM]
1,CN(C)S(=O)(=O)c1ccccc1OCC(=O)NCC(O)CN1Cc2ccccc2C1 (stereo not drawn) [Compound E15.],< 0.1
2,COc1ccc(Cn2cnc3ccc(-c4ccc(OCC(O)CN5Cc6ccccc6C5)cc4)cc32)cc1 (stereo not drawn) [Compound E18.],1 to 10
3,Nc1cccc(C(=O)NCC(O)CN2Cc3ccccc3C2)c1 (stereo not drawn) [Compound E2.],1 to 10
4,C[C@@H](Oc1cccc2cccnc12)C(=O)NC[C@H](O)CN1Cc2ccccc2C1 [Compound E5.],< 0.1
5,O=C(COc1ccccc1-c1cc[nH]n1)NCC(O)CN1Cc2ccccc2C1 (stereo not drawn) [Compound E7.],0.101 to 1
6,CS(=O)(=O)c1ccccc1OCC(=O)NCC(O)CN1Cc2ccccc2C1 (stereo not drawn) [Compound E12.],0.101 to 1
7,O=C(COc1cccc2cccnc12)NC[C@@H](O)CN1Cc2ccccc2C1 [Compound E16.],1 to 10
